For 28 molecules, IC50 results are on record in US11820766B2, “Monoacylglycerol lipase modulators” (Janssen Pharmaceutica NV, priority 2018, dated 2023).

pIC50: −log10 of the molar value. Structures can show the parent of a compound that is named as a salt.

For one test, the target named is T1, human MGL from HeLa cells (Homo sapiens, UniProt Q99685).
T1 construct: combining endogenously expressed MGL from HeLa cells with test compounds; endogenous in cells; host or cells: HeLa cells / cell homogenates
T1 sequence (Q99685 1-303): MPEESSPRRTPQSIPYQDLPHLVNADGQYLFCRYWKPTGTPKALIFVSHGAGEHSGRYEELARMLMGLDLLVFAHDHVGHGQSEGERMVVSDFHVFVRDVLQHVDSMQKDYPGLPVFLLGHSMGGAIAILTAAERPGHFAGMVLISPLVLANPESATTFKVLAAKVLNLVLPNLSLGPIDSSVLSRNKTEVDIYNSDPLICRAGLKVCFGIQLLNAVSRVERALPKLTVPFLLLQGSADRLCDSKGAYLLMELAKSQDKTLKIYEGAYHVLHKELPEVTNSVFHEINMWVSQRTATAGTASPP
The test is described as follows: In vitro MGL activity assay: [glycerol-1,3-3H]-oleyl glycerol cleavage by MGL from HeLa cells. It is filed as biochemical. Particulars: 300 nM [Glycerol-1,3-3H]-oleyl glycerol, one hour. An excerpt:
MGL is the predominant hydrolase in HeLa cells/cell homogenates.
With `Cc1cnn2ncc(C(=O)N3CCc4c(nn(C)c4-c4cc(F)c(F)c(F)c4)[C@@H]3C)c2c1` [Example 443, [(7S)-2,7-Dimethyl-3-(3,4,5-trifluorophenyl)-5,7-dihydro-4H-pyrazolo[3,4-c]pyridin-6-yl]-(5-methylpyrazolo[1,5-b]pyridazin-3-yl) methanone], the negative-log IC50 (pIC50) (as a rule, the negative decadic logarithm of the IC50, by convention in mol/L) is 7.91.
Turning to `C[C@H]1c2nn(C)c(-c3cc(F)c(F)c(F)c3)c2CCN1C(=O)c1cnc2n1CCC2` [Example 559, 6,7-Dihydro-5H-pyrrolo[1,2-a]imidazol-3-yl-[(7S)-2,7-dimethyl-3-(3,4,5-trifluorophenyl)-5,7-dihydro-4H-pyrazolo[3,4-c]pyridin-6-yl]methanone], the pIC50 is 6.53.
`C[C@H]1c2nn(C)c(-c3ccc4occc4c3)c2CCN1C(=O)c1ccc2ncccc2c1` [Example 533, [(7S)-3-(Benzofuran-5-yl)-2,7-dimethyl-5,7-dihydro-4H-pyrazolo[3,4-c]pyridin-6-yl]-(6-quinolyl)methanone] had a negative-log IC50 (pIC50) of 7.76.
The same measure, in the same setting: under `C[C@H]1c2nn(C)c(-c3cc(F)c(F)c(F)c3)c2CCN1C(=O)c1nccc2cn(C)nc12` [Example 429, [(7S)-2,7-Dimethyl-3-(3,4,5-trifluorophenyl)-5,7-dihydro-4H-pyrazolo[3,4-c]pyridin-6-yl]-(2-methylpyrazolo[3,4-c]pyridin-7-yl)methanone] stands 6.39; under `C[C@H]1c2nn(C)c(-c3cc(F)c(F)c(F)c3)c2CCN1C(=O)c1cnc2cc(F)ccn12` [Example 393, [(7S)-2,7-Dimethyl-3-(3,4,5-trifluorophenyl)-5,7-dihydro-4H-pyrazolo[3,4-c]pyridin-6-yl]-(7-fluoroimidazo[1,2-a]pyridin-3-yl)methanone], 6.60; under `C[C@H]1c2nn(C)c(-c3cccc4scnc34)c2CCN1C(=O)c1ccc2ncccc2c1` [Example 537, [(7S)-3-(1,3-Benzothiazol-4-yl)-2,7-dimethyl-5,7-dihydro-4H-pyrazolo[3,4-c]pyridin-6-yl]-(6-quinolyl)methanone], 7.48.
Regarding `C[C@H]1c2nn(C)c(-c3cc(F)c(F)c(F)c3)c2CCN1C(=O)c1ccc2nc(O)ccc2c1` [Example 517, [(7S)-2,7-Dimethyl-3-(3,4,5-trifluorophenyl)-5,7-dihydro-4H-pyrazolo[3,4-c]pyridin-6-yl]-(2-hydroxy-6-quinolyl)methanone], the pIC50 was 7.09.
Regarding `C[C@H]1c2nn(C)c(-c3cc(F)c(F)c(F)c3)c2CCN1C(=O)c1n[nH]c2ncc(F)cc12` [Example 428, [(7S)-2,7-Dimethyl-3-(3,4,5-trifluorophenyl)-5,7-dihydro-4H-pyrazolo[3,4-c]pyridin-6-yl]-(5-fluoro-1H-pyrazolo[3,4-b]pyridin-3-yl)methanone.TFA salt], the pIC50 was 7.64.
Still for that read-out and setting: under `Cc1nc2ccc(F)cn2c1C(=O)N1CCc2c(nn(C)c2-c2cc(F)c(F)c(F)c2)[C@@H]1C` [Example 407, [(7S)-2,7-Dimethyl-3-(3,4,5-trifluorophenyl)-5,7-dihydro-4H-pyrazolo[3,4-c]pyridin-6-yl]-(6-fluoro-2-methyl-imidazo[1,2-a]pyridin-3-yl)methanone] stands 7.67.
Same read-out and setting: under `Cc1cccc2c(C(=O)N3CCc4c(nn(C)c4-c4cc(F)c(F)c(F)c4)[C@@H]3C)c(C3CC3)nn12` [Example 385, (2-Cyclopropyl-7-methyl-pyrazolo[1,5-a]pyridin-3-yl)-[(7S)-2,7-dimethyl-3-(3,4,5-trifluorophenyl)-5,7-dihydro-4H-pyrazolo[3,4-c]pyridin-6-yl]methanone] stands 6.92.
On the same count and under the same terms, the same measure for `CC1c2nn(C34CC(C3)C4)c(-c3ccccc3)c2CCN1C(=O)c1cnn(C)c1C1CC1` (single isomer, unassigned) [Example 342, (S*)-(2-(Bicyclo[1.1.1]pentan-1-yl)-7-methyl-3-phenyl-2,4,5,7-tetrahydro-6H-pyrazolo[3,4-c]pyridin-6-yl)(5-cyclopropyl-1-methyl-1H-pyrazol-4-yl)methanone]: 6.59; for `Cc1cn2c(C(=O)N3CCc4c(nn(C)c4-c4cc(F)c(F)c(F)c4)[C@@H]3C)cccc2n1` [Example 394, [(7S)-2,7-Dimethyl-3-(3,4,5-trifluorophenyl)-5,7-dihydro-4H-pyrazolo[3,4-c]pyridin-6-yl]-(2-methylimidazo[1,2-a]pyridin-5-yl)methanone]: 6.85.
As to `C[C@H]1c2nn(C)c(-c3cc(F)c(F)c(F)c3)c2CCN1C(=O)c1cccn2ccnc12` [Example 392, [(7S)-2,7-Dimethyl-3-(3,4,5-trifluorophenyl)-5,7-dihydro-4H-pyrazolo[3,4-c]pyridin-6-yl]-imidazo[1,2-a]pyridin-8-yl-methanone], the negative-log IC50 (pIC50) is 6.15.
As to `C[C@H]1c2nn(C)c(-c3cc(F)c(F)c(F)c3)c2CCN1C(=O)c1n[nH]c2ccccc12` [Example 361, [(7S)-2,7-Dimethyl-3-(3,4,5-trifluorophenyl)-5,7-dihydro-4H-pyrazolo[3,4-c]pyridin-6-yl]-(1H-indazol-3-yl)methanone], the pIC50 is 7.83.
Same read-out and setting: the same measure for `Cc1cc(-c2c3c(nn2C)[C@H](C)N(C(=O)c2ccc4ncccc4c2)CC3)ccn1` [Example 520, [(7S)-2,7-Dimethyl-3-(2-methyl-4-pyridyl)-5,7-dihydro-4H-pyrazolo[3,4-c]pyridin-6-yl]-(6-quinolyl)methanone]: 5.95.
With `Cc1ncc2ccc(C(=O)N3CCc4c(nn(C)c4-c4cc(F)c(F)c(F)c4)[C@@H]3C)cn12` [Example 418, [(7S)-2,7-Dimethyl-3-(3,4,5-trifluorophenyl)-5,7-dihydro-4H-pyrazolo[3,4-c]pyridin-6-yl]-(3-methylimidazo[1,5-a]pyridin-6-yl)methanone], the pIC50 is 7.84.

The same test, now with this note: 300 nM [Glycerol-1,3-3H]-oleyl glycerol, one hour incubation.
The molecule `COc1cccc(C(=O)N2CCc3c(nn(C)c3-c3cc(F)c(F)c(F)c3)[C@@H]2C)c1` [Example 260, [(7S)-2,7-Dimethyl-3-(3,4,5-trifluorophenyl)-5,7-dihydro-4H-pyrazolo[3,4-c]pyridin-6-yl]-(3-methoxyphenyl)methanone] gave a negative-log IC50 (pIC50) of 8.14.
Still for that read-out and setting: under `COCc1cncc(C(=O)N2CCc3c(nn(C)c3-c3cc(F)c(F)c(F)c3)[C@@H]2C)c1` [Example 304, [(7S)-2,7-Dimethyl-3-(3,4,5-trifluorophenyl)-5,7-dihydro-4H-pyrazolo[3,4-c]pyridin-6-yl]-[5-(methoxymethyl)-3-pyridyl]methanone] stands 6.24; under `Cn1nc2c(c1C1CC1)CCN(C(=O)c1cccc3ccccc13)C2` [Example 3, (3-Cyclopropyl-2-methyl-2,4,5,7-tetrahydro-6H-pyrazolo[3,4-c]pyridin-6-yl)(naphthalen-1-yl)methanone], 6.10.
Same read-out and setting: the same measure for `Cn1nc2c(c1-c1ccccc1)CCN(C(=O)c1cccc3cn[nH]c13)C2` [Example 67, (1H-Indazol-7-yl)(2-methyl-3-phenyl-2,4,5,7-tetrahydro-6H-pyrazolo[3,4-c]pyridin-6-yl)methanone]: 5.79; for `Cn1nc2c(c1-c1cccc(Cl)c1)CCN(C(=O)c1ccc3ncccc3c1)C2` [Example 99, (3-(3-Chlorophenyl)-2-methyl-2,4,5,7-tetrahydro-6H-pyrazolo[3,4-c]pyridin-6-yl)(quinolin-6-yl)methanone]: 6.57.
`C[C@H]1c2nn(C)c(-c3cc(F)c(F)c(F)c3)c2CCN1C(=O)c1cnn(C)c1C(F)(F)F` [Example 198, (S)-(2,7-Dimethyl-3-(3,4,5-trifluorophenyl)-2,4,5,7-tetrahydro-6H-pyrazolo[3,4-c]pyridin-6-yl)(1-methyl-5-(trifluoromethyl)-1H-pyrazol-4-yl)methanone] gave a negative-log IC50 (pIC50) of 7.85.
The same measure, in the same setting: under `Cn1ncc(C(=O)N2CCc3c(nn(C)c3-c3ccccc3)C2)c1Cl` [Example 20, (5-Chloro-1-methyl-1H-pyrazol-4-yl)(2-methyl-3-phenyl-2,4,5,7-tetrahydro-6H-pyrazolo[3,4-c]pyridin-6-yl)methanone] stands 5.68.
Still for that read-out and setting: under `C[C@H]1c2nn(C)c(-c3cc(F)c(F)c(F)c3)c2CCN1C(=O)c1ncn(-c2ncccc2F)n1` [Example 324, [(7S)-2,7-Dimethyl-3-(3,4,5-trifluorophenyl)-5,7-dihydro-4H-pyrazolo[3,4-c]pyridin-6-yl]-[1-(3-fluoro-2-pyridyl)-1,2,4-triazol-3-yl]methanone] stands 7.38; under `Cn1nc2c(c1-c1ccccc1)CCN(C(=O)c1noc3cc(Cl)ccc13)C2` [Example 54, (6-Chlorobenzo[d]isoxazol-3-yl)(2-methyl-3-phenyl-2,4,5,7-tetrahydro-6H-pyrazolo[3,4-c]pyridin-6-yl)methanone], 5.95.
The same measure, in the same setting: the same measure for `COc1cc(C(=O)N2CCc3c(nn(C)c3-c3cc(F)c(F)c(F)c3)[C@@H]2C)c2ccccc2n1` [Example 240, (S)-(2,7-Dimethyl-3-(3,4,5-trifluorophenyl)-2,4,5,7-tetrahydro-6H-pyrazolo[3,4-c]pyridin-6-yl)(2-methoxyquinolin-4-yl)methanone]: 9.16; for `C[C@H]1c2nn(C)c(-c3cncc(F)c3)c2CCN1C(=O)c1ccc2nccnc2c1` [Example 109, (S)-(3-(5-Fluoropyridin-3-yl)-2,7-dimethyl-2,4,5,7-tetrahydro-6H-pyrazolo[3,4-c]pyridin-6-yl)(quinoxalin-6-yl)methanone]: 6.14.
For `C[C@H]1c2nn(C)c(-c3cc(F)c(F)c(F)c3)c2CCN1C(=O)c1ccccc1-n1cnc(C(F)(F)F)n1` [Example 282, [(7S)-2,7-Dimethyl-3-(3,4,5-trifluorophenyl)-5,7-dihydro-4H-pyrazolo[3,4-c]pyridin-6-yl]-[2-[3-(trifluoromethyl)-1,2,4-triazol-1-yl]phenyl]methanone], the pIC50 was 5.73.
